# Assay results from article PMC6461108, “A catalytic protein–proteomimetic complex: using aromatic oligoamide foldamers as activators of RNase S” (Chemical Science, 2019).
# “And” between values parts separate entries of the source, which are not always exact repeats. Identical values can stand only once.
# Assays:
# RNase S-protein [1] = biological target: T1, RNase S-protein (Bos taurus, UniProt P61823); assay: Regulation of S-protein activity by hDM2 (RNA degradation assay); details: hDM2 10 μM; 1a 100 μM or S-peptide 0.4 μM with S-protein
# T1 sequence (P61823 47-150 limits assumed): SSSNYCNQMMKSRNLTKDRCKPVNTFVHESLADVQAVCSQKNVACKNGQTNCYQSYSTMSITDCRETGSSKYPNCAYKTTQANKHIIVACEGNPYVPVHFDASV
# RNase S-protein [2] = biological target: T2, RNase S-protein (Bos taurus, UniProt P61823); assay: Kinetics of RNA hydrolysis by S-protein with S-peptide or mimetic; details: S-protein 0.05 µM, S-peptide 0.4 µM or 1a 100 µM
# T2 sequence (P61823 48-150): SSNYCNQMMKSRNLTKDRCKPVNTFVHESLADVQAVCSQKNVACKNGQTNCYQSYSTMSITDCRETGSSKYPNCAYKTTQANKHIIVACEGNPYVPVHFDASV
# RNase S-protein [3] = biological target: T2, RNase S-protein; assay: RNA degradation assay (EtBr fluorescence), reactivation of S-protein; format: biochemical, bovine; parameters: S-protein22-124; host or cells: none: purchased RNase A digested with subtilisin, S-protein purified by RP-HPLC; details: for % remaining fluorescence (100 µM): 100 µM compound, 0.05 µM S-protein, 45 min, 25 °C, Tris pH 6.5
# S-protein [4] = biological target: T3, S-protein (Bos taurus, UniProt P61823); assay: Isothermal titration calorimetry with S-protein; format: binding, bovine
# T3 construct: S-protein22-124; host or cells: none: purchased RNase A digested with subtilisin, S-protein purified by RP-HPLC
# T3 sequence (P61823 48-150): T2 sequence (P61823 48-150)
# p53/hDM2 interaction = p53/hDM2 interaction (Homo sapiens, UniProt Q00987); assay: Fluorescence anisotropy competition assay against p53/hDM2; format: binding; details: FITC-p53 15-31 tracer; for IC50: 50 mM phosphate pH 7.5, 200 mM NaCl, 0.02 mg/mL BSA
# Source text: The calculation was run to generate 10 000 conformer sets, of which the lowest energy […]
# in total) were retained for docking experiments. The lowest energy conformers belong to the same family of conformers and are well superimposed with the first lowest energy […]
# protein (from 4YGW) and S-protein in complex with dApTpApApG (1RCN) using Glide XP method.11-13 All of the input ligands gave a pose in the S-protein binding groove. The […]
# 12, were refined using the induced fit docking against S-protein in complex with the oligonucleotide. Side chains of S-protein binding groove were automatically trimmed (based on B-factor) during docking calculation and restored for the final refinement.
# The library of hybrid mimetics were docked as flexible ligands against the S-protein in complex with the oligonucleotide fragment using Glide XP (extra precision) method.11-13 […]
# ligands against S-protein in complex with the oligonucleotide fragment using Glide XP method11-13 and refined using induced fit docking (Fig S7).
# The fluorescein-labelled p5315-31–Flu 3,4 was purchased from peptide protein research Ltd.
# Fluorescence anisotropy assays were performed in 384-well black plates (Greiner Bio-one). Each experiment was run in triplicate and fluorescence anisotropy was measured using a Perkin Elmer EnVisionTM 2103 MultiLabel plate reader. […]
# For control wells in both assays, the tracer peptide was replaced with an identical volume of assay buffer. […] Plates were read after 1 h of incubation at room temperature. […]
# The average anisotropy (across three experimental replicates) and the standard deviation of these values were then calculated and fit to a sigmoidal logistic model (Equation 3) using OriginPro 9.0 which provided the IC50 and error values. […]
# UV absorbance analyses were recorded in a 1 mm path-length quartz cuvette on a Perkin Elmer Lambda 900 UV/VIS/NIR spectrometer.
# High-resolution mass spectrometry (HRMS) data was recorded using electrospray ionization in positive mode (ESI+) with a Bruker MaXis Impact spectrometer. […]
# S-protein [5] = biological target: T3, S-protein; assay: Native ESI-MS of S-protein complexes; format: binding, bovine
# [6] = S-protein titrated into mimetic, 37 °C
compound,measurement,setting,value
CC(C)Oc1cc(NC(=O)[C@H](Cc2ccccc2)NC(=O)c2ccc(N)c(OCc3ccc(Cl)cc3)c2)ccc1C(=O)NCC(=O)O [Compound 1a],effect of added hDM2 on RNA hydrolysis,RNase S-protein [1],suppressed
same,"V0, average initial rate of RNA degradation",RNase S-protein [2]; CRNA 50,0.016 ± 0.001 g/mL/s
same,"V0, average initial rate of RNA degradation",RNase S-protein [2]; CRNA 75,0.04 ± 0.004 g/mL/s
same,"V0, average initial rate of RNA degradation",RNase S-protein [2]; CRNA 125,0.088 ± 0.009 g/mL/s
same,"V0, average initial rate of RNA degradation",RNase S-protein [2]; CRNA 200,0.126 ± 0.011 g/mL/s
same,"V0, average initial rate of RNA degradation",RNase S-protein [2]; CRNA 300,0.168 ± 0.016 g/mL/s
same,"V0, average initial rate of RNA degradation",RNase S-protein [2]; CRNA 425,0.211 ± 0.032 g/mL/s
same,"V0, average initial rate of RNA degradation",RNase S-protein [2]; CRNA 575,0.254 ± 0.053 g/mL/s
same,% remaining fluorescence (100 µM),RNase S-protein [3],40%
same,activity in RNA degradation assay at a single concentration (SAR set 1a-1d),"RNase S-protein [3]; single concentration, 20 µL of 1 mM stock in 200 µL",active
same,Kd,S-protein [4],1.85 ± 0.97 µM
same,"H (kcal/mol), ITC",S-protein [4]; [6],-19.04 ± 1.90 kcal/mol
same,"S (cal/molK), ITC",S-protein [4]; [6],-35.2 cal/molK
same,n (ITC stoichiometry),S-protein [4]; [6],0.089 and 0.1
same,IC50,p53/hDM2 interaction,10.9 µM and ~10 µM
same,S-protein/mimetic complexes detected by native ESI-MS,S-protein [5]; 5-fold excess of mimetic (10 μM) relative to S-protein (2 μM),1 : 1 complex and a lower intensity 1 : 2 S-protein/mimetic 1a complex could be detected
same,ternary complex in native MS competition with increasing S-peptide,"S-protein [5]; S-protein and 1a constant, increasing S-peptide",no ternary complex could be detected
CC(C)Oc1cc(NC(=O)[C@H](Cc2ccccc2)NC(=O)c2ccc(N)c(OCc3ccc4ccccc4c3)c2)ccc1C(=O)NCC(=O)O [Compound 4],% remaining fluorescence (100 µM),RNase S-protein [3],44%
same,IC50,p53/hDM2 interaction,8.1 ± 0.3 µM
"Ac-KETAAAKFERQHMDS-NH2 [S-peptide, reference compound]",effect of added hDM2 on RNA hydrolysis,RNase S-protein [1],no effect on catalysis
same,"V0, average initial rate of RNA degradation",RNase S-protein [2]; CRNA 50,0.057 ± 0.002 g/mL/s
same,"V0, average initial rate of RNA degradation",RNase S-protein [2]; CRNA 75,0.097 ± 0.004 g/mL/s
same,"V0, average initial rate of RNA degradation",RNase S-protein [2]; CRNA 125,0.159 ± 0.008 g/mL/s
same,"V0, average initial rate of RNA degradation",RNase S-protein [2]; CRNA 200,0.226 ± 0.011 g/mL/s
same,"V0, average initial rate of RNA degradation",RNase S-protein [2]; CRNA 300,0.296 ± 0.029 g/mL/s
same,"V0, average initial rate of RNA degradation",RNase S-protein [2]; CRNA 425,0.362 ± 0.037 g/mL/s
same,"V0, average initial rate of RNA degradation",RNase S-protein [2]; CRNA 575,0.431 ± 0.050 g/mL/s
same,Kd,S-protein [4],0.13 ± 0.02 µM
same,competition with fluorescently labelled p53 peptide for hDM2,p53/hDM2 interaction,did not compete
